# pIC50: −log10 of the molar value.
# Key:
# PC-3 (Prostate) = test: MTT test, overall cell growth; type: cell-based, human; conditions: PC-3 cell line
# Experimental: (§1) In order to characterize the in vitro activities of the compounds according to the invention, MTT tests were carried out. The MTT test, which is a well-known test in the art, is an indirect technique that rapidly measures, i.e. within 5 days, the effect of a given product on the overall cell growth. This test measures the number of metabolically active living cells that are able to transform the MTT product (3-(4,5-dimethylthiazol-2-yl)-2,5 diphenyl tetrazolium bromide), having a yellowish color, to the blue product formazan dye by mitochondrial reduction. The amount of formazan obtained at the end of the experiment is measured with a spectrophotometer and is directly proportional to the number of living cells. Determination of the optical density enables a quantitative measurement of the effect of the investigated compounds as compared to the control condition (untreated cells) and to compare it to other reference compound. […]
# (§2) After 72 hours of incubation at 37° C. with the compound (experimental conditions) or without the compound (control condition), the medium was replaced by 100 μl MTT at the concentration of 1 mg/ml dissolved in RPMI. […] The micro wells were shaken for 5 minutes and read on a spectrophotometer at the wavelengths of 570 nm corresponding to the maximum formazan absorbance wavelength, and of 630 nm, which is the background noise wavelength. […]
# Capan-2 (Pancreas) = test: MTT test, overall cell growth; type: cell-based, human; conditions: Capan-2 cell line
# Experimental: as §1, §2
# A549 (lung cancer) = test: Orthotopic lung cancer model; type: in vivo, mice; conditions: for T/C index: A549 orthotopic, three times a week
# Experimental: Three types of results were obtained with in vivo anti-tumor pharmacology: 1) the cumulative toxicity of chemotherapeutic administrations through recording the weights of the tumor-bearing mice during treatment, 2) the actual anti-tumor effect exerted at tumor growth level. If the tumor models are grafted subcutaneously (s.c.), tumor size is measured three times a week by means of a caliper and expressed as an area (mm^2) by multiplying together the two largest perpendicular diameters, and 3) the gain in survival for the animals treated, which is evaluated by means of the T/C index. This index is the ratio between the median survival time of the group of treated animals (T) and that of the control group. The drug is considered to be active if the T/C value is above 130% (P<0.05), and toxic for a value lower than 70%.
# The antitumoral activity of compound B was evaluated in different xenografted models: sub-cutanous model: MCF-7-TD5 (breast cancer) and C32 (melanoma cancer) and orthotopic model: A549 (lung cancer).
# Lung cancer is the leading cause of cancer deaths worldwide. Most patients die of progressive metastatic disease despite aggressive local and systemic therapies. The pathogenesis of lung cancer remains highly elusive due to its aggressive biologic nature and considerable heterogeneity, as compared to other cancers. Orthotopic lung cancer models are described in the literature using endobronchial, intrathoracic or intravenous injection of tumor cell suspensions and by surgical implantation of fresh tumor tissue. The tumor cells are directly injected into the lung of nude mice. The advantages of orthotopic models include improved tumor take and enhanced invasive and metastatic properties.
# Compound B was assayed at DMT/2 (40 mg/kg), DMT/4 (20 mg/kg) and DMT/8 (10 mg/kg) three times a week. […] These values are statistically significant.
# FIG. 21 represents the death rate of nine mice in each of the control and test groups during the experiment. Kaplan-Meier statistical analysis was used. The statistics value underlines the general fit of the test control in comparison with the general fit of the control group. […] The level significance was p<0.05.
compound,measurement,setting,value
CC1CC2(NC(=O)CS2)C2(O)OC3CC4(CO)C(CCC5C4CCC4(C)C(C6=CC(=O)OC6)CCC54O)CC3OC2O1 (stereo not shown) [Compound B],pIC50,PC-3 (Prostate),8.00 to 8.30
same,pIC50,Capan-2 (Pancreas),9.00
same,T/C index,A549 (lung cancer); 3×40 mg/kg,124%
same,T/C index,A549 (lung cancer); 7×20 mg/kg,152%
same,T/C index,A549 (lung cancer); 10×10 mg/kg,186%
same,weight of A549-tumor bearing mice (toxic side effects),"A549 (lung cancer); constant administrations, 40, 20 and 10 mg/kg",did not lose any significant weight
same,weight of A549-tumor bearing mice,A549 (lung cancer); first week of administration at 40 mg/kg,significant loss of weight
